# From patent publication US7282344B2, “Cation conducting GABAA receptors and their use” (Neurosearch A/S, priority 2001, dated 2007)
# Molecular target: T1, GABAA receptor α2 β3 γ2 (wt) (Homo sapiens, UniProt P18507+P28472+P47869)
# T1 construct: expressed in transfected cells; host or cells: CHO-K1 (ATCC No. CCL61)
# Test: [^3H]-Muscimol binding, wild-type receptor
# Details: wt α2 β3 γ2, membranes from CHO-K1 cells
# Protocol: Binding studies were performed using standard methods. Membranes were prepared from CHO-K1 cells expressing recombinant GABAAR subunits. The cells were washed in PBS (Life Technologies), trypsinized, washed twice in tris-citrate buffer (50 mM, pH 7.1) and centrifuged for 10 minutes at 5,000 g.
# Membranes were resuspended in membrane wash buffer [20 mM KH2PO4K2HPO4, pH 7.5, 50 mM KCl, 0.025% (w/v) NaN3, and various protease inhibitors (1 mM EDTA, 2 mM benzamidine chloride, 0.1 mM benzethonium chloride, 50 U/ml bacitracin, 0.3 mM phenylmethylsulfonyl fluoride, 10 mg/I ovomucoid trypsin inhibitor, 10 mg/l soybean trypsin inhibitor)] and centrifuged for 30 minutes at 177,000 g and 4° C. The pellet was resuspended in binding assay buffer (20 mM KH2PO4/K2HPO4, pH 7.5 and 100 mM KCl) to a protein concentration of 1 mg/ml and homogenized just before use. Binding was performed with 1, 3, 10, 30, 100 or 300 nM of [^3H]-muscimol (20 Ci/mmol, Dupont-New England Nuclear) in triplicate in a final volume of 250 μl containing 200 μg of protein, and non-specific binding was determined in the presence of 1 mM GABA (Sigma). Samples were incubated at 4° C. for 30 minutes and labelled membranes were harvested on a Brandel cell harvester using GF/B filters (Whatman). The filters were washed with 3×4 ml binding assay buffer and the amount of radioactivity was determined by liquid scintillation counting. […]
# T1 sequence (P47869 29-451): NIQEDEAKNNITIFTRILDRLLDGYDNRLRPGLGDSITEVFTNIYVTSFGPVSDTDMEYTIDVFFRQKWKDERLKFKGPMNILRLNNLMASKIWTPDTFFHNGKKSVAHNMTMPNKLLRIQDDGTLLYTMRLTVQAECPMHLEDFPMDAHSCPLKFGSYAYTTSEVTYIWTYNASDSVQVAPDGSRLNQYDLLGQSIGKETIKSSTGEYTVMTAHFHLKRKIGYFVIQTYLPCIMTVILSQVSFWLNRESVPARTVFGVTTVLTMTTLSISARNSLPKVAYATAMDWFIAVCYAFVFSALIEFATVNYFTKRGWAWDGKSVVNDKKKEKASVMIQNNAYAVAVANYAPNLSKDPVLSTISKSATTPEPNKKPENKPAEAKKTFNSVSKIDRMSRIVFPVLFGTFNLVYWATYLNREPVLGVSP
# T1 sequence (P28472 26-473): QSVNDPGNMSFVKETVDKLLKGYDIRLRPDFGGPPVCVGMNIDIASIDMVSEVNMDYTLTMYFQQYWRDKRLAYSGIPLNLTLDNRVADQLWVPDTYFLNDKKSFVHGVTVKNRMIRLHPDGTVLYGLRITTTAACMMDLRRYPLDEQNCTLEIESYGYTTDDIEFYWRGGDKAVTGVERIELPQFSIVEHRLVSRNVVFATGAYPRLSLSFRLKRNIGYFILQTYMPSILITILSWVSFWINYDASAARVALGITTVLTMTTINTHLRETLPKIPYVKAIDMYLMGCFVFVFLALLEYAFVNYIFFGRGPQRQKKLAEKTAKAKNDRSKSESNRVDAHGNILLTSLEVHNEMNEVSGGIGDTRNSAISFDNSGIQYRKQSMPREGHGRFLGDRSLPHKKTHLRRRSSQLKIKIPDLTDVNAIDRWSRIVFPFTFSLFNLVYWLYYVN
# T1 sequence (P18507 40-475): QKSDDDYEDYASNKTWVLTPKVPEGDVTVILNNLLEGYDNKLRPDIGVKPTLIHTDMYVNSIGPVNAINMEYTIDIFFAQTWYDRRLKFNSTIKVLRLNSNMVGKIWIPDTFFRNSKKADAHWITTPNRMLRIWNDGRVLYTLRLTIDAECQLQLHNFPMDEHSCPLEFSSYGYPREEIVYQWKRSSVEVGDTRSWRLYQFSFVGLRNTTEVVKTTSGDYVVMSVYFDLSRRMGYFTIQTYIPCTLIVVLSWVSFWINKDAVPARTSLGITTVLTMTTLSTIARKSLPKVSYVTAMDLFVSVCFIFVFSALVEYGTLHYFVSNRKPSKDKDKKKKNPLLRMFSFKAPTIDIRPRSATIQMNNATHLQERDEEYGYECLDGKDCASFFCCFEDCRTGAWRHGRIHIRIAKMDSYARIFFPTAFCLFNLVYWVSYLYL
smiles,measurement,value
"NCc1cc(=O)[nH]o1 [[^3H] Muscimol, Muscimol]",Kd,54.7 ± 14.7 nM
